According to PubChem BioAssay AID2060509 (Molecular Pharmacology Branch, DTP, NCI, 2025):

Tested on: 485176-168-R4-J1-PDC spheroids with HUVEC/MSC, viability
Assay: Anticancer human tumor 485176-168-R4-J1-PDC patient-derived pancreatic adenocarcinoma cell line growth inhibition [GQUAD]
Conditions: for IC50: curve of first compound; for viability, T/C: stronger effect = lower value
Procedure, shortened: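 Tumor cells were grown as complex spheroids with HUVEC endothelial cells and mesenchymal stem cells as stroma. G-quadruplex stabilizers were combined with targeted agents over half-log dilutions from near the clinical Cmax, or from 10 microM.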

[1] = second compound 0.0316 µM, first compound 0.0316 µM
[2] = second compound 0.0316 µM, first compound 0.1 µM
[3] = second compound 0.0316 µM, first compound 0.316 µM
[4] = second compound 0.0316 µM, first compound 1 µM
[5] = second compound 0.0316 µM, first compound 3.16 µM
[6] = second compound 0.0316 µM, first compound 10 µM
[7] = second compound 0.1 µM, first compound 0.0316 µM
[8] = second compound 0.1 µM, first compound 0.1 µM
[9] = second compound 0.1 µM, first compound 0.316 µM
[10] = second compound 0.1 µM, first compound 1 µM
[11] = second compound 0.1 µM, first compound 3.16 µM
[12] = second compound 0.1 µM, first compound 10 µM
[13] = second compound 0.316 µM, first compound 0.0316 µM
[14] = second compound 0.316 µM, first compound 0.1 µM
[15] = second compound 0.316 µM, first compound 0.316 µM
[16] = second compound 0.316 µM, first compound 1 µM
[17] = second compound 0.316 µM, first compound 3.16 µM
[18] = second compound 0.316 µM, first compound 10 µM
[19] = second compound 1 µM, first compound 0.0316 µM
[20] = second compound 1 µM, first compound 0.1 µM
[21] = second compound 1 µM, first compound 0.316 µM
[22] = second compound 1 µM, first compound 1 µM
[23] = second compound 1 µM, first compound 3.16 µM
[24] = second compound 1 µM, first compound 10 µM
[25] = second compound 3.16 µM, first compound 0.0316 µM
[26] = second compound 3.16 µM, first compound 0.1 µM
[27] = second compound 3.16 µM, first compound 0.316 µM
[28] = second compound 3.16 µM, first compound 1 µM
[29] = second compound 3.16 µM, first compound 3.16 µM
[30] = second compound 3.16 µM, first compound 10 µM
[31] = second compound 10 µM, first compound 0.0316 µM
[32] = second compound 10 µM, first compound 0.1 µM
[33] = second compound 10 µM, first compound 0.316 µM
[34] = second compound 10 µM, first compound 1 µM
[35] = second compound 10 µM, first compound 3.16 µM
[36] = second compound 10 µM, first compound 10 µM
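Further: spheroids exposed to compounds for seven days before readout.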
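Wherever viability, T/C is given: percent viability relative to DMSO vehicle control wells as 100%.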

## O=C(NO)c1cnc(N2CCN(S(=O)(=O)c3ccc4ccccc4c3)CC2)nc1 + CN(C)c1ccc(Nc2c3ccc(NC(=O)CCN4CCCC4)cc3nc3cc(NC(=O)CCN4CCCC4)ccc23)cc1
Second compound 0.0316 µM
  IC50: 0.492 µM
Second compound 0.1 µM
  IC50: 0.472 µM
Second compound 0.316 µM
  IC50: 0.506 µM
Second compound 1 µM
  IC50: 0.455 µM
Second compound 3.16 µM
  IC50: 0.538 µM
Second compound 10 µM
  IC50: 0.377 µM
[1]
  viability, T/C: 92.8%
[2]
  viability, T/C: 84.5%
[3]
  viability, T/C: 74.8%
[4]
  viability, T/C: 10.4%
[5]
  viability, T/C: 0.23%
[6]
  viability, T/C: 0.27%
[7]
  viability, T/C: 85.5%
[8]
  viability, T/C: 92.1%
[9]
  viability, T/C: 70.8%
[10]
  viability, T/C: 10.7%
[11]
  viability, T/C: 0.21%
[12]
  viability, T/C: 0.2%
[13]
  viability, T/C: 112%
[14]
  viability, T/C: 85.6%
[15]
  viability, T/C: 78.5%
[16]
  viability, T/C: 9.79%
[17]
  viability, T/C: 0.19%
[18]
  viability, T/C: 0.17%
[19]
  viability, T/C: 114%
[20]
  viability, T/C: 88.8%
[21]
  viability, T/C: 70.9%
[22]
  viability, T/C: 12.5%
[23]
  viability, T/C: 0.21%
[24]
  viability, T/C: 0.2%
[25]
  viability, T/C: 91.2%
[26]
  viability, T/C: 98.4%
[27]
  viability, T/C: 84.5%
[28]
  viability, T/C: 9.67%
[29]
  viability, T/C: 0.25%
[30]
  viability, T/C: 0.2%
[31]
  viability, T/C: 83.2%
[32]
  viability, T/C: 73.6%
[33]
  viability, T/C: 57.7%
[34]
  viability, T/C: 12.3%
[35]
  viability, T/C: 0.25%
[36]
  viability, T/C: 0.22%

## CC1COCCN1c1cc(C2(S(C)(=N)=O)CC2)nc(-c2ccnc3[nH]ccc23)n1 (stereo not drawn) + CN(C)c1ccc(Nc2c3ccc(NC(=O)CCN4CCCC4)cc3nc3cc(NC(=O)CCN4CCCC4)ccc23)cc1
Second compound 0.0316 µM
  IC50: 2.21 µM
Second compound 0.1 µM
  IC50: 1.87 µM
Second compound 0.316 µM
  IC50: 2.11 µM
Second compound 1 µM
  IC50: 2.07 µM
Second compound 3.16 µM
  IC50: 1.99 µM
Second compound 10 µM
  IC50: 1.49 µM
[1]
  viability, T/C: 92.4%
[2]
  viability, T/C: 85.2%
[3]
  viability, T/C: 86.2%
[4]
  viability, T/C: 75%
[5]
  viability, T/C: 38.7%
[6]
  viability, T/C: 15.9%
[7]
  viability, T/C: 100%
[8]
  viability, T/C: 81.9%
[9]
  viability, T/C: 84.6%
[10]
  viability, T/C: 69.9%
[11]
  viability, T/C: 33.6%
[12]
  viability, T/C: 17.6%
[13]
  viability, T/C: 103%
[14]
  viability, T/C: 101%
[15]
  viability, T/C: 97.8%
[16]
  viability, T/C: 76.3%
[17]
  viability, T/C: 35.7%
[18]
  viability, T/C: 15.6%
[19]
  viability, T/C: 115%
[20]
  viability, T/C: 85.6%
[21]
  viability, T/C: 109%
[22]
  viability, T/C: 70.2%
[23]
  viability, T/C: 38.5%
[24]
  viability, T/C: 18%
[25]
  viability, T/C: 90.8%
[26]
  viability, T/C: 99.2%
[27]
  viability, T/C: 97.5%
[28]
  viability, T/C: 69.1%
[29]
  viability, T/C: 37.1%
[30]
  viability, T/C: 15.8%
[31]
  viability, T/C: 88.2%
[32]
  viability, T/C: 100%
[33]
  viability, T/C: 81.2%
[34]
  viability, T/C: 59.5%
[35]
  viability, T/C: 32.8%
[36]
  viability, T/C: 20.3%

## C#Cc1c(F)ccc2cc(O)cc(-c3ncc4c(N5CC6CCC(C5)N6)nc(OCC56CCCN5CC(F)C6)nc4c3F)c12 (stereo not drawn) + Cc1[nH]c2ccc(F)cc2c1-c1nc2c3cccnc3c3ncccc3c2[nH]1
Second compound 0.0316 µM
  IC50: > 10 µM
Second compound 0.1 µM
  IC50: > 10 µM
Second compound 0.316 µM
  IC50: > 10 µM
Second compound 1 µM
  IC50: > 10 µM
Second compound 3.16 µM
  IC50: > 10 µM
Second compound 10 µM
  IC50: > 10 µM
[1]
  viability, T/C: 92.5%
[2]
  viability, T/C: 95.7%
[3]
  viability, T/C: 91.5%
[4]
  viability, T/C: 84.1%
[5]
  viability, T/C: 90.3%
[6]
  viability, T/C: 89.7%
[7]
  viability, T/C: 93%
[8]
  viability, T/C: 102%
[9]
  viability, T/C: 101%
[10]
  viability, T/C: 109%
[11]
  viability, T/C: 103%
[12]
  viability, T/C: 93.6%
[13]
  viability, T/C: 91%
[14]
  viability, T/C: 101%
[15]
  viability, T/C: 93.4%
[16]
  viability, T/C: 107%
[17]
  viability, T/C: 99.1%
[18]
  viability, T/C: 87%
[19]
  viability, T/C: 105%
[20]
  viability, T/C: 89.2%
[21]
  viability, T/C: 92.4%
[22]
  viability, T/C: 81.5%
[23]
  viability, T/C: 109%
[24]
  viability, T/C: 93%
[25]
  viability, T/C: 98.9%
[26]
  viability, T/C: 80.9%
[27]
  viability, T/C: 105%
[28]
  viability, T/C: 97.6%
[29]
  viability, T/C: 90.4%
[30]
  viability, T/C: 95.3%
[31]
  viability, T/C: 96.6%
[32]
  viability, T/C: 92%
[33]
  viability, T/C: 82.7%
[34]
  viability, T/C: 87.8%
[35]
  viability, T/C: 85.1%
[36]
  viability, T/C: 86.5%

## CC(C)n1c(=O)n(C)c2cnc3cc(F)c(-c4ccc(OCCCN5CCCCC5)nc4)cc3c21 + Cc1cnc(CNC(=O)c2c(=O)c3ccc(N4CCCN(C)CC4)nc3n3c2sc2ccccc23)cn1
Second compound 0.0316 µM
  IC50: > 10 µM
Second compound 0.1 µM
  IC50: < 0.0316 µM
Second compound 0.316 µM
  IC50: < 0.0316 µM
Second compound 1 µM
  IC50: < 0.0316 µM
Second compound 3.16 µM
  IC50: < 0.0316 µM
Second compound 10 µM
  IC50: < 0.0316 µM
[1]
  viability, T/C: 65%
[2]
  viability, T/C: 50.2%
[3]
  viability, T/C: 63.1%
[4]
  viability, T/C: 59.2%
[5]
  viability, T/C: 62.2%
[6]
  viability, T/C: 61.2%
[7]
  viability, T/C: 40.2%
[8]
  viability, T/C: 47.4%
[9]
  viability, T/C: 35.6%
[10]
  viability, T/C: 50%
[11]
  viability, T/C: 49.2%
[12]
  viability, T/C: 47.5%
[13]
  viability, T/C: 39.6%
[14]
  viability, T/C: 36%
[15]
  viability, T/C: 30.4%
[16]
  viability, T/C: 33.5%
[17]
  viability, T/C: 34.5%
[18]
  viability, T/C: 41.3%
[19]
  viability, T/C: 27%
[20]
  viability, T/C: 30.2%
[21]
  viability, T/C: 34.2%
[22]
  viability, T/C: 34.5%
[23]
  viability, T/C: 30%
[24]
  viability, T/C: 34.7%
[25]
  viability, T/C: 36.1%
[26]
  viability, T/C: 34.3%
[27]
  viability, T/C: 33.5%
[28]
  viability, T/C: 34.7%
[29]
  viability, T/C: 29.5%
[30]
  viability, T/C: 25.6%
[31]
  viability, T/C: 27%
[32]
  viability, T/C: 27.7%
[33]
  viability, T/C: 28.9%
[34]
  viability, T/C: 28.2%
[35]
  viability, T/C: 25.2%
[36]
  viability, T/C: 24.5%
